The results in this text go back to article PMC7409196, “Investigating the Effect of Esterification on Retinal Pigment Epithelial Uptake Using Rhodamine B Derivatives” (Translational Vision Science & Technology, 2020).

Data set [1] is described as follows: Stability of dyes in media (HPLC). The data set is classed as in vitro ADME. The note with it: 100 nM in MEM-Nic + 1% FBS, 37°C, HPLC at 0 and 2 hours. The protocol:
Fresh 100 nM RBBE solutions were prepared in MEM-Nic + 1% FBS with 0.2% Tween20. HPLC chromatograms were recorded immediately after making solutions and after incubation at 37°C for 2 hours to determine stability of the ester linkage in media.

The test system of data set [2] is ARPE-19-nic cells. Kind of data set: Co-localization with Mito-GFP (confocal and high-resolution live cell imaging). The data set is classed as cell-based, human. The conditions noted are these: 25 nM, 30 minutes; for cell penetration and association with mitochondria, high-resolution airy scan imaging: live cells. The protocol: ARPE-19-nic cells were seeded at 1.5 × 10^5 cells per well density in 8-well Millicell EZ slides with MEM-Nic + 1% FBS. After 24 hours (60%–70% confluency), cells were transfected with CellLight Mitochondria-GFP using manufacturer's recommended protocol. For co-localization experiments carried out at subconfluent conditions, media containing CellLight Mito-GFP were removed, washed with DPBS and cells were treated with 25 nM dye solutions prepared in MEM-Nic + 1% FBS at 37°C, 5% CO2. After 30 minutes, media containing dye solution was removed and cells were washed three times with DPBS. Cells were mounted with DPBS for confocal laser scanning microscope imaging. An 63× oil lens was used to image cells in green and red channels. For experiments carried out at confluent conditions, transfection was carried out at 60% to 70% confluency and cells were grown to 100% confluency. A 20× lens was used to generate images to compare staining efficiencies.
To analyze RBBE and its association with mitochondria, high-resolution live cell imaging was conducted using a Zeiss LSM880 inverted confocal microscope equipped with a GaAsP detector. All the images were obtained by using a 63× oil objective (30°C oil) in three channels (blue, green, and red) at room temperature. ARPE-19-nic cells were grown in Lab-Tek II chambered no 1.5 German coverslip system for 24 hours before treating with CellLight Mito-GFP overnight followed by a 30-minute treatment of 25 nM RBBE in growth media. After treating the cells with RBBE, cells were washed twice with PBS and nuclei were stained employing a Hoechst stain (1/2000 diluted from a 10 mg/mL stock solution in media) for 10 minutes at room temperature. Subsequently cells were washed twice with PBS and cells were imaged in phenol red free CO2 independent Leibovitz's (1×) media.

Data set [3] concerns ARPE-19-nic cells. Kind of data set: De-esterification in cells (HPLC of cell extracts). Format: in vitro ADME, human. The note with it: confluent cells treated with 100 nM for 30 minutes and 2 hours. The protocol:
For cell work, confluent ARPE-19-nic cells were treated with 100 nM dye solutions for 30 minutes and 2 hours at 37°C, 5% CO2 in a 12-well plate. After washing the cells with PBS three times, cells were extracted using cell scrappers with the aid of methanol. The cell suspension in methanol was sonicated in a water bath for 5 minutes and was centrifuged at 16,000 g for 15 minutes. The supernatant was transferred to an HPLC vial and methanol was evaporated under a stream of nitrogen. The sample was resuspended in 40 µL of methanol before injecting into the HPLC system. Twenty microliters of the samples were injected with an autosampler. Separation was conducted by 1.1 mL/min isocratic elution with a methanol (80%) and 10 mM sodium phosphate buffer (pH 5.8, 20%) mobile phase on a 250 × 4.6-mm (5 µm) C18 column (Pinnacle II; Restek, Bellefonte, PA) maintained at 40°C. The samples were monitored at an emission wavelength of 580 nm (λex = 550 nm) using a FLD detector and analyzed with Agilent Chemstation software.

The subject of data set [4] is isolated mitochondria from ARPE-19-nic cells. The experiment in a line: Quantification of dye amounts in isolated mitochondria. The data set is classed as cell-based, human. The note with it: 100 nM, 30 minutes; t-test P < 0.0001.
Data set [5] concerns ARPE-19-nic cells. Kind of data set: Accumulation experiment with repeated dye additions. The note with it: 25 nM added 1×, 2× or 3×, 2 hours each. The data set is classed as cell-based, human. The protocol: Black clear bottomed Costar 96-well plates were pretreated with 0.039 mg/mL collagen I solution prepared in sterilized deionized water (50 µL per well) for 1 hour, aspirated and washed with 100 µL of DPBS. Confluent ARPE-19-nic cells were harvested and seeded at approximately 70,000 cells per well and grown until the cells reached 100% confluency. At the time of confluence (day 0), media were removed from the cells and treated with 100 µL of freshly made dye solutions in MEM-Nic + 1% FBS in amber Eppendorf tubes in dark. After the appropriate incubation time, cells were washed thrice with DPBS, lysed with Qiagen RLT buffer with 0.2% Tween20, and fluorescence was recorded at λex/ λem = 552 nm/558 nm. […] Extracellular levels were measured by transferring 75 µL of the media sitting on top of the cells to a new black, clear bottomed 96-well plate. To the transferred media, 25 µL of Qiagen RLT lysis buffer with 0.2% Tween20 were added and fluorescence was measured as mentioned elsewhere in this article. Intracellular amounts were determined by adding 100 µL of Qiagen RLT lysis buffer with 0.2% Tween20 to the cells that were washed thrice with DPBS. Fluorescence measurements were carried as described. […] After the incubation period, cells were washed three times with DPBS and fluorescence was measured from a plate reader. […]

The test system of data set [6] is ARPE-19-nic cells. Kind of data set: Cellular uptake: intracellular and extracellular fluorescence quantification. The data set is classed as cell-based, human.
Method: Black clear bottomed Costar 96-well plates were pretreated with 0.039 mg/mL collagen I solution prepared in sterilized deionized water (50 µL per well) for 1 hour, aspirated and washed with 100 µL of DPBS. Confluent ARPE-19-nic cells were harvested and seeded at approximately 70,000 cells per well and grown until the cells reached 100% confluency. At the time of confluence (day 0), media were removed from the cells and treated with 100 µL of freshly made dye solutions in MEM-Nic + 1% FBS in amber Eppendorf tubes in dark. […] To determine intracellular and extracellular dye levels, cells were treated with 25 nM dye solutions for 2 hours. Extracellular levels were measured by transferring 75 µL of the media sitting on top of the cells to a new black, clear bottomed 96-well plate. To the transferred media, 25 µL of Qiagen RLT lysis buffer with 0.2% Tween20 were added and fluorescence was measured as mentioned elsewhere in this article. Intracellular amounts were determined by adding 100 µL of Qiagen RLT lysis buffer with 0.2% Tween20 to the cells that were washed thrice with DPBS. Fluorescence measurements were carried as described. For accumulation experiments, freshly prepared 25 nM dye solutions were added to cells multiple times (1×, 2×, or 3×) and incubated for 2 hours after each addition, removing media before each addition. After the incubation period, cells were washed three times with DPBS and fluorescence was measured from a plate reader. For retention experiments, cells were treated with 25 nM dye solutions for 2 hours at 37°C, 5% CO2, and fresh media was added every 24 hours after the removal of the dye solution.

For `CCCCOC(=O)c1ccccc1-c1c2ccc(=[N+](CC)CC)cc-2oc2cc(N(CC)CC)ccc12` [RBBE, Rhodamine B Butyl Ester], the “stability of the ester in media” value in data set [1] is “stable in media up to 2 hours”. The “cell penetration and association with mitochondria, high-resolution airy scan imaging” value in the data set with ARPE-19-nic cells [2] is “able to effectively penetrate into the cells and associated with mitochondria”. In addition, in the data set on ARPE-19-nic cells [3], the “conversion into the parent form (de-esterification) inside cells” value is listed as “did not convert into its parent form within 2 hours”. Also, the “fluorescence from isolated mitochondria compared with RB-treated cells” value in data set [4] is reported as “increased fluorescence activity”.

On to rhodamine B [RB], for which the “co-localization with Mito-GFP labelled mitochondria” value in the data set with ARPE-19-nic cells [2] (confocal laser scanning microscopy) was “not detected within the cells”. In addition, the “cell penetration and association with mitochondria, high-resolution airy scan imaging” value in the data set on ARPE-19-nic cells [2] is “did not observe any RB”. Moreover, the “intracellular level after multiple doses (accumulation)” value in the data set on ARPE-19-nic cells [5] is given as “showed no accumulation”. Further, the cell permeability result with ARPE-19-nic cells [6] (25 nM) was “cell impermeable”. Besides, the “intracellular versus extracellular location of dye” value with ARPE-19-nic cells [6] (25 nM, 2 hours, fluorescence) is reported as “primarily located in the extracellular space”. For the same molecule, in the data set with ARPE-19-nic cells [6] (24 hours incubation), the “cell penetration after 24 hours incubation” value is given as “not able to penetrate into the cells”.
